Results: paper PMC8399847, “Hybrid Quinolinyl Phosphonates as Heterocyclic Carboxylate Isosteres: Synthesis and Biological Evaluation against Topoisomerase 1B (TOP1B)” (Pharmaceuticals, 2021)

Columns and labels:
Format in all cases: cell-based
[1] = system: SKOV3 (human ovarian carcinoma); experiment: CCK-8 cytotoxicity assay, SKOV3; conditions: SK-OV-3, SKOV3, 48 h, CCK-8, 50% growth inhibition, read-out: Cytotoxicity IC50 Ovarian SKOV3
Experimental: (§1) The cytotoxicity of the newly synthesized quinolinylphosphonates 7 was evaluated in vitro by testing their antiproliferative activities against several human cancer cell lines: A549 (human lung adenocarcinoma cells), SKOV3 (human ovarian carcinoma), and HEK293 (human embryonic kidney). In order to analyze the selective cytotoxicity facing exclusively cancerous cell lines, cytotoxicity against non-cancerous cell lines (MRC-5, lung fibroblast cells) was also evaluated. Cell counting kit (CCK-8) assay was employed to assess growth inhibition and, cell proliferation inhibitory activities of compounds that are listed in Table 1 as IC50 values. […] According to the data presented in Table 1, in general, all these phosphorated derivatives present higher selective cytotoxicity in the A549 cell line than in the other two cell lines, SKOV3 and HEK293, although slight differences are observed compared to human ovarian carcinoma (SKOV3).
(§2) Cells were cultured according to the supplier’s instructions, A549 (ATCC® CCL-185), SKOV3 (ATCC® HTB-77), HEK293 (CLS GmbH), MRC-5 (ATCC® CCL-171™). Cells were seeded in 96-well plates at a density of 2–2.5 × 10^3 cells per well and incubated overnight in 0.1 mL of media supplied with 10% Fetal Bovine Serum (Lonza, Basel, Switzerland) in a 5% CO2 incubator at 37 °C. On day 2, drugs (concentration between 0.5–50 μM) were added and samples were incubated for 48 h. After treatment, 10 μL of cell counting kit-8 was added to each well for an additional 2 h incubation at 37 °C. The absorbance of each well was determined by an Automatic Elisa Reader System at 450 nm wavelength. CPT was purchased from Sigma-Aldrich and used as a positive control.

[2] = system: A549 (human lung adenocarcinoma cells); experiment: CCK-8 cytotoxicity assay, A549; conditions: A549, 48 h, CCK-8, 50% growth inhibition, read-out: Cytotoxicity IC50 Lung A549
Experimental: as §1, §2

[3] = CCK-8 cytotoxicity assay, MRC-5 non-cancerous cells; conditions: human, MRC-5 non-malignant lung fibroblast cells, MRC-5 non-malignant lung fibroblasts
Experimental: as §1, §2

For CC[C@@]1(O)C(=O)OCc2c1cc1n(c2=O)Cc2cc3ccccc3nc2-1 [CPT, Camptothecin, reference compound], the IC50 [1] was 5.5 nM, the IC50 [2] was 1 nM and the IC50 at 48 h [3] was 0.017 nM.
